Reference: US8022069B2, “Substituted piperidines as renin inhibitors” (Novartis AG, priority 2008, dated 2011)

Molecular target: T1, renin (Homo sapiens, UniProt P00797)
T1 construct: This test measures the formation of angiotensin I in human plasma; from tissue; host or cells: human plasma
T1 sequence (P00797 67-406): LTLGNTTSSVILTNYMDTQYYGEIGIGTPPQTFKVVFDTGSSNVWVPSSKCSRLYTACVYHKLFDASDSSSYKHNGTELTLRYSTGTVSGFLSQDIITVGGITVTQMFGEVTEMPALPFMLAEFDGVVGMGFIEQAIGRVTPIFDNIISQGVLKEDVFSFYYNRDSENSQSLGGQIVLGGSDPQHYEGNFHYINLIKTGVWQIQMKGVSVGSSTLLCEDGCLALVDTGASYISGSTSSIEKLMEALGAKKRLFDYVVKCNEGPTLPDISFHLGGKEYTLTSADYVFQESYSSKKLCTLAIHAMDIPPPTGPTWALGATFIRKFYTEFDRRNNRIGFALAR
Experiment: formation of angiotensin I in human plasma, radioimmunoassay (Nussberger et al.)
Type: biochemical
Details: values in the range of about, read-out: IC50, inhibition of the formation of angiotensin I
Description: The effect of renin inhibitors is detected inter alia experimentally by means of in vitro tests where the reduction in the formation of angiotensin I is measured in various systems (human plasma, purified human renin together with synthetic or natural renin substrate). The following in vitro test of Nussberger et al. (1987) J. Cardiovascular Pharmacol., Vol. 9, pp. 39-44, is used inter alia. This test measures the formation of angiotensin I in human plasma. The amount of angiotensin I formed is determined in a subsequent radioimmunoassay. The effect of inhibitors on the formation of angiotensin I is tested in this system by adding various concentrations of these substances. The IC50 is defined as the concentration of the particular inhibitor which reduces the formation of angiotensin I by 50%. The compounds of the present invention show inhibitory effects in the in vitro systems at minimal concentrations of about 10^−6 mol/l to about 10^−10 mol/l.

Row | IC50 [nM] | Structure (SMILES)
1 | 0.1 to 10 | CCO[C@H](C)COCc1ccc([C@H]2C[C@@H](CC(C)(C)C(=O)NC)NC[C@@H]2OCc2ccc3c(c2)N(CCCOC)CCO3)cc1 [Example 5, 3-{(2S,4R,5R)-4-[4-((R)-2-Ethoxy-propoxymethyl)-phenyl]-5-[4-(3-methoxy-propyl) -3,4-dihydro-2H-benzo[1,4]oxazin-6-ylmethoxy]-piperidin-2-yl}-2,2,N-trimethyl-propionamide]
2 | 0.1 to 10 | CCO[C@H](C)COCc1ccc([C@H]2C[C@H](CCn3cnnc3)NC[C@@H]2OCc2ccc3c(c2)N(CCCOC)CCO3)cc1 [Example 9, 6-[(3R,4R,6R)-4-[4-((R)-2-Ethoxy-propoxymethyl)-phenyl]-6-(2-[1,2,4]triazol-4-yl-ethyl) -piperidin-3-yloxymethyl]-4-(3-methoxy-propyl)-3,4-dihydro-2H-benzo[1,4]oxazine]
